Data taken from US20190274334A1 (MARS, INCORPORATED, priority 2016, published 2019).
Where two headings read alike, the source gives them in different places. *1 amine or outer side, *2 acyl side, *3 side chain or, on linkers, in order; H or OH if unused. Where a SMILES comes first, the peptide text is derived from it. [ ]: non-standard residue; d: D form. γGlu = O=C(O)[C@H](CCC(=O)[*:2])N[*:1]; Abu = CC[C@H](N)C(=O)O

Target: feline CaSR (f:CaSR) (Felis catus, UniProt A0ABI7YY68)
Assay: cell-based
Format: cell-based
[1] = PAM mode, CaCl2 injected at EC20, read-out: EC50 (PAM)
[2] = double-injection protocol, agonist mode and PAM mode
[3] = agonist mode, read-out: EC50 (Agonist)

Chain of feline CaSR (f:CaSR) (A0ABI7YY68 entry or part of it): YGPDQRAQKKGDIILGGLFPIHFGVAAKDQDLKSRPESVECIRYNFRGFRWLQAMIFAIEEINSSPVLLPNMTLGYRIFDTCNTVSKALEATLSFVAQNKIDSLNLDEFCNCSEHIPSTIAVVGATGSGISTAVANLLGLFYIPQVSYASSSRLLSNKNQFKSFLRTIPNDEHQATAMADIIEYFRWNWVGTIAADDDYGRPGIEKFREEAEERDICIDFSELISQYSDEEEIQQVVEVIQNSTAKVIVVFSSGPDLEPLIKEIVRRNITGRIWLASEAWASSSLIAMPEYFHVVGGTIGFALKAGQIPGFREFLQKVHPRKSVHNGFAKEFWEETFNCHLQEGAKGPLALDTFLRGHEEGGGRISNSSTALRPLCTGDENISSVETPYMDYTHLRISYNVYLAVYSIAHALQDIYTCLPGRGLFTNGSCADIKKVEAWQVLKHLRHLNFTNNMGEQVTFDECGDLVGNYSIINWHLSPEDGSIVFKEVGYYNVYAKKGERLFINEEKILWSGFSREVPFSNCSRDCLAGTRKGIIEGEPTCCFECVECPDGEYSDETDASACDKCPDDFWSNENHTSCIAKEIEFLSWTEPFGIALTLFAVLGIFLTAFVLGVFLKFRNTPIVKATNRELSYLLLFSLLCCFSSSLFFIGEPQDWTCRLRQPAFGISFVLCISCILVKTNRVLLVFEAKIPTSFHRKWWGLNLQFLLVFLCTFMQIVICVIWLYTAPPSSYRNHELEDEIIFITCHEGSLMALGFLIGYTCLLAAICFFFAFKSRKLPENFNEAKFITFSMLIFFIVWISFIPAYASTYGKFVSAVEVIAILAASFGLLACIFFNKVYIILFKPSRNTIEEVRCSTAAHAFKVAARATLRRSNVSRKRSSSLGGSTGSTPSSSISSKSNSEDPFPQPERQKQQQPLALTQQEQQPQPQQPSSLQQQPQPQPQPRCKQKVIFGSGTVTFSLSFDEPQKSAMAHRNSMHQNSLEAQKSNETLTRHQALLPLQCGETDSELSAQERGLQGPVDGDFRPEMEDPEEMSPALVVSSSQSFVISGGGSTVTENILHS

Compound	Activity Type [2]	other results
CC(NCC1Cc2ccccc2O1)c1ccc2ccccc2n1 (stereo not drawn) [N-((2,3-dihydrobenzofuran-2-yl)methyl)-1-(quinolin-2-yl)ethanamine]	PAM	EC50 [1]: 9.01 µM
Cc1ccc(C(CCNC(C)c2ccccc2)c2ccco2)cc1 (stereo not drawn) [3-(furan-2-yl)-N-(1-phenylethyl)-3-(p-tolyl)propan-1-amine]	PAM	EC50 [1]: 0.752 µM
CC(C)C[C@H](NC(=O)CC[C@H](N)C(=O)O)C(=O)O [H-Glu(Leu-OH)—OH]	Agonist	–
CN[C@@H]1[C@@H](O)[C@@H](O[C@@H]2[C@@H](O)[C@H](O[C@H]3OC(CN)=CC[C@H]3N)[C@@H](N)C[C@H]2N)OC[C@]1(C)O [Sisomicin, reference compound]	Agonist	–
C[C@@H](NCCCc1cccc(C(F)(F)F)c1)c1cccc2ccccc12 [Cinacalcet, reference compound]	–	Activity Type: PAM EC50 0.746 uM
NC(CC(F)C(=O)O)C(=O)O (racemic) [4-Fluoro-DL-glutamic acid]	Agonist	–
COc1cc(C(O)(c2nc3ccccc3s2)C(F)(F)F)c(OC)cc1N (stereo not drawn) [1-(4-amino-2,5-dimethoxyphenyl)-1-(benzo[d]thiazol-2-yl)-2,2,2-trifluoroethanol]	PAM	EC50 [1]: 2.42 µM
NC[C@@H]1O[C@H](O[C@H]2[C@@H](O)[C@H](O[C@@H]3[C@@H](O)[C@H](N)C[C@H](N)[C@H]3O[C@H]3O[C@H](CO)[C@@H](O)[C@H](O)[C@H]3N)O[C@@H]2CO)[C@H](N)[C@@H](O)[C@@H]1O [Paromomycin, reference compound]	Agonist	–
CC(NCCC(Cc1ccccc1)c1ccco1)c1ccc(Cl)cc1 (stereo not drawn) [N-(1-(4-chlorophenyl)ethyl)-3-(furan-2-yl)-4-phenylbutan-1-amine]	PAM	EC50 [1]: 4 µM
[Ba] [Barium]	Agonist	EC50 [3]: 1170 µM
N[C@@H](CCC(=O)N[C@@H](Cc1ccccc1)C(=O)O)C(=O)O [γ-Glu-Phe]	Agonist	EC50 [3]: 2320 µM
Cc1ccc(C(C)(O)c2nc3ccccc3s2)c(C)c1 (stereo not drawn) [1-(benzo[d]thiazol-2-yl)-1-(2,4-dimethylphenyl)ethanol]	PAM	EC50 [1]: 0.0511 µM
NC(=O)CC[C@H](NC(=O)CC[C@H](NC(=O)CC[C@H](N)C(=O)O)C(=O)O)C(=O)O [H-Glu(Glu(Gln-OH)—OH)—OH]	Agonist	–
Tobramycin [reference compound]	PAM	–
CC(C)[C@H](NC(=O)CC[C@H](N)C(=O)O)C(=O)O [γ-Glu-Val]	Agonist	–
N[C@@H](CS(=O)(=O)O)C(=O)O [L-Cysteic acid]	Agonist	–
N[C@@H](CCCC(=O)O)C(=O)O [L-2-Aminoadipic acid]	Agonist	–
C[C@H](NC(=O)C[C@H](N)C(=O)O)C(=O)O [H-Asp(Ala-OH)—OH]	Agonist	–
N[C@@H](CCP(=O)(O)O)C(=O)O (stereo in doubt) [2-Amino-4-phosphonobutyric acid]	Agonist	–
CC(NCCC(c1ccccc1)C1CCOC(C)(C)C1)c1ccccc1 (stereo not drawn) [3-(2,2-dimethyltetrahydro-2H-pyran-4-yl)-3-phenyl-N-(1-phenylethyl)propan-1-amine]	PAM	EC50 [1]: 0.988 µM
CC(C)CCC(CCNC(C)c1ccc(Cl)cc1)c1ccc(OC(C)C)cc1 (stereo not drawn) [N-(1-(4-chlorophenyl)ethyl)-3-(4-isopropoxyphenyl)-6-methylheptan-1-amine]	PAM	EC50 [1]: 172 µM

Compound	Activity Type [2]	other results
CC(C)Oc1ccc(C(CCNC(C)c2ccc(Cl)cc2)C(C)C)cc1 (stereo not drawn) [N-(1-(4-chlorophenyl)ethyl)-3-(4-isopropoxyphenyl)-4-methylpentan-1-amine]	PAM	EC50 [1]: 135 µM
Cc1ccc(C(CCNC(C)c2ccc(Cl)cc2)c2ccco2)cc1 (stereo not drawn) [N-(1-(4-chlorophenyl)ethyl)-3-(furan-2-yl)-3-(p-tolyl)propan-1-amine]	PAM	EC50 [1]: 3.68 µM
[Mg] [Magnesium]	Agonist	–
COc1ccccc1C(CCNC(C)c1ccc(Cl)cc1)c1ccco1 (stereo not drawn) [N-(1-(4-chlorophenyl)ethyl)-3-(furan-2-yl)-3-(2-methoxyphenyl)propan-1-amine]	PAM	EC50 [1]: 1.41 µM
[Sr+2] [Strontium]	Agonist	–
COC(=O)C[C@H](N)C(=O)O [L-Aspartic acid beta-methyl ester]	Agonist	–
N[C@@H](CCC(=O)N[C@@H](CCC(=O)O)C(=O)O)C(=O)O [H-Glu(Glu-OH)—OH]	Agonist	–
[Gd] [Gadolinium]	Agonist	EC50 [3]: 295 µM
CC(NCCC(c1ccccc1)c1ccco1)c1ccccc1 (stereo not drawn) [3-(furan-2-yl)-3-phenyl-N-(1-phenylethyl)propan-1-amine]	PAM	EC50 [1]: 0.458 µM
N[C@@H](CCS(=O)(=O)O)C(=O)O [L-Homocysteic acid]	Agonist	–
CC[C@H](NC(=O)CC[C@H](N)C(=O)O)C(=O)NCC(=O)O [Ophthalmic Acid] (γGlu-[Abu]-Gly-OH)	Agonist	EC50 [3]: 2660 µM
C[Se]C[C@H](N)C(=O)O [Se-(Methyl)selenocysteine]	Agonist	EC50 [3]: 4470 µM
CC(C)Oc1ccc(C(CCNC(C)c2ccc(Cl)cc2)c2ccccc2)cc1 (stereo not drawn) [N-(1-(4-chlorophenyl)ethyl)-3-(4-isopropoxyphenyl)-3-phenylpropan-1-amine]	PAM	EC50 [1]: 4.49 µM
N[C@@H](CCC(=O)N[C@@H](CSCCO)C(=O)NCC(=O)O)C(=O)O [S-(2-Hydroxyethyl)glutathione]	Agonist	–
N[C@]1(C(=O)O)C[C@H](C(=O)O)C1 [(1s,3s)-1-aminocyclobutane-1,3-dicarboxylic acid]	–	Activity Type: Agonist
NC(=O)CC[C@H](NC(=O)CC[C@H](N)C(=O)O)C(=O)O [H-Glu(Gln-OH)—OH]	Agonist	–
N[C@@H](CCC(=O)N[C@@H](CS)C(=O)O)C(=O)O [H-Glu(Cys-OH)—OH]	–	Activity Type: Agonist
N[C@@H](CCC(=O)O)C(=O)O [L-Glutamic acid]	–	Activity Type: Agonist
N[C@@H](CP(=O)(O)O)C(=O)O (stereo in doubt) [2-Amino-3-phosphonopropionic acid]	Agonist	–
CSCC[C@H](NC(=O)CC[C@H](N)C(=O)O)C(=O)O [H-Glu(Met-OH)—OH]	Agonist	–
Poly-L-ornithine	–	Activity Type: Agonist EC50 0.240 mM; EC50 (read-out: EC50 (Agonist)): 240 µM
